# Patent US20090233937A1 (TAKEDA PHARMACEUTICAL COMPANY LIMITED, priority 2008, published 2009)
# Molecular target: T1, EGFR kinase (EGFR intracellular domain) (Homo sapiens, UniProt P00533)
# T1 construct: made in house; host or cells: SF-21 insect cells infected with recombinant baculovirus BAC-EGFR
# Assay: Determination of EGFR kinase inhibitory activity
# Type: biochemical
# Set-up: concentration or dose not given beside the values
# Conditions: compound at 1.0 μL (so in the source), [γ-32P]ATP, poly-Glu:Tyr (4:1) substrate
# Description: Human EGFR gene was cloned by RT-PCR using total RNA prepared from A431 cells as a template. The primer used for RT-PCR was prepared in consideration of the information of nucleotide sequence (Genbank Accession No. X00588) of EGFR gene by adding a nucleotide sequence encoding DYKDDDD peptide and a restriction enzyme recognition sequence to a nucleotide sequence (corresponding to 2191-3819 of Genbank Accession No. X00588 as a base, 669-1210 amino acids of Genbank Accession No. NP_005219 as a protein) encoding the EGFR intracellular domain region such that the protein contains an N-terminal DYKDDDD peptide tag. The primer nucleotide sequence is shown below.
# (§1) SF-21 cells were sown at 1×10^6 cells/mL in Sf-900II SFM medium (1 L, Invitrogen) containing 10% fetal bovine serum (trace), 50 mg/L gentamicin (Invitrogen) and 0.1% Pluronic F-68 (Invitrogen), and shaking culture was performed using a 2 L volume Erlenmeyer flask at 27° C., 100 rpm. After culturing for 24 hrs, recombinant baculovirus BAC-EGFR (13.4 mL) was added, and the mixture was further cultured for 3 days. The culture medium was centrifuged at 2,000 rpm for 5 min to give virus-infected cells. The infected cells were washed with a phosphate buffered saline (Invitrogen), centrifuged under the same conditions, and the cells were preserved at −80° C. The cryopreserved cells were thawed in ice, suspended in buffer A (50 mM Tris buffer (30 mL, pH 7.4) containing 20% glycerol, 0.15 M NaCl) supplemented with Complete Protease Inhibitor (Boehringer), and ruptured 3 times with a Polytron homogenizer (Kinematica) at 20,000 rpm for 30 sec. The ruptured solution was clarified by centrifugation at 40,000 rpm for 30 min, and filtered with a 0.45 μm filter. The filtrate was passed through a column packed with Anti-FLAG M2 Affinity Gel (4 mL, Sigma-Aldrich) at a flow rate of about 0.5 mL/min. The column was washed with buffer A, and eluted with buffer A containing 100 μg/mL of FLAG peptide. The eluent was concentrated with Vivaspin 20 (Vivascience) having a molecular weight cut off of 30K. The concentrate was purified by gel filtration using Hi Load 16/60 Superdex 200 pg (GE Healthcare Bioscience) equilibrated with buffer A. The fractions containing EGFR intracellular domain were collected and cryopreserved at −80° C.
# EGFR kinase reaction was performed using a 96 well plate. As a buffer for kinase reaction, a buffer having a composition of 50 mM Tris-HCl (pH 7.5), 5 mM MnCl2, 2 mM dithiothreitol, 0.01% Tween-20 was used. The compound of the present invention was dissolved in dimethyl sulfoxide (DMSO), and diluted with the kinase reaction buffer so that DMSO concentration would be 0.1% during kinase reaction. This compound solution (10 μL) was mixed with a kinase reaction buffer (20 μL) containing EGFR intracellular domain (0.625 μg/mL) obtained in Experimental Example 2B and polypeptide substrate poly-Glu:Tyr (4:1) (Sigma Ltd., 12.5 μg/mL), and the mixture was stood at room temperature for 5 min. […] A kinase reaction was performed at room temperature for 10 min, and the kinase reaction was quenched by addition of 20% TCA solution (50 μL). The mixture after completion of the reaction was stood at room temperature for 30 min, and acid insoluble fractions in the mixture after completion of the reaction were collected in a 96 well GF/C filter plate (PerkinElmer) using a cell harvester (PerkinElmer). Thereafter, the filter containing the acid insoluble fractions was washed with 3% phosphoric acid solution. After washing, the filter plate was dried at 45° C. for 60 min, and 25 μL of MicroScinti 0 (PerkinElmer) was added. The radioactivity was measured using TopCount (PerkinElmer). EGFR kinase inhibitory rate (%) of the test compound was calculated by the following formula:
# Inhibitory rate (%)=(1−(count of test compound−blank)÷(control−blank))×100
# T1 sequence (P00533 669-1210): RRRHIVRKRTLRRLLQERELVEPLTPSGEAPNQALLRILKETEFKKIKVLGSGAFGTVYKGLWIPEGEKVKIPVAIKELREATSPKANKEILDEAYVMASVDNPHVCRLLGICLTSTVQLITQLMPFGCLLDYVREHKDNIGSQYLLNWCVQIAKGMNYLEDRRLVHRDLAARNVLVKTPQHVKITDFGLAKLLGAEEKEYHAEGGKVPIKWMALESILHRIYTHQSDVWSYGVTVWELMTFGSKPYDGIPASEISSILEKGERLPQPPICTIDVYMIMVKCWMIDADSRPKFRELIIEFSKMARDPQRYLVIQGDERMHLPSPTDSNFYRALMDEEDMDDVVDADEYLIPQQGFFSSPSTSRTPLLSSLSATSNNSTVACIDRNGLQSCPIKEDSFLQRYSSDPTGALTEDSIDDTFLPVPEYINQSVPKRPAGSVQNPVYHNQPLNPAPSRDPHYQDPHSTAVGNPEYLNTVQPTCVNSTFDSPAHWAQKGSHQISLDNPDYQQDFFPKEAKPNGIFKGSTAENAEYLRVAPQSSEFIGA
row,SMILES,inhibitory rate (%) at 1.0 μL
1,"CC(C)(CO)C(=O)NCCn1ccc2ncnc(Nc3ccc(Oc4cccc5sncc45)c(Cl)c3)c21 [Example 10, N-[2-(4-{[4-(1,2-benzoisothiazol-4-yloxy)-3-chlorophenyl]amino}-5H-pyrrolo[3,2-d]pyrimidin-5-yl)ethyl]-3-hydroxy-2,2-dimethylpropanamide]",98%
2,"CC(=O)NCCn1ccc2ncnc(Nc3ccc(Oc4cccc5nscc45)c(Cl)c3)c21 [Example 12, N-[2-(4-{[4-(2,1-benzoisothiazol-4-yloxy)-3-chlorophenyl]amino}-5H-pyrrolo[3,2-d]pyrimidin-5-yl)ethyl]acetamide]",95%
3,"CC(C)(N)CC(=O)NCCn1ccc2ncnc(Nc3ccc(Oc4cccc5sncc45)c(Cl)c3)c21 [Example 62, 3-amino-N-[2-(4-{[4-(1,2-benzoisothiazol-4-yloxy)-3-chlorophenyl]amino}-5H-pyrrolo[3,2-d]pyrimidin-5-yl)ethyl]-3-methylbutanamide]",99%
4,"Cn1ccc2ncnc(Nc3ccc(Oc4cccc5sncc45)c(Cl)c3)c21 [Example 1, N-[4-(1,2-benzoisothiazol-4-yloxy)-3-chlorophenyl]-5-methyl-5H-pyrrolo[3,2-d]pyrimidin-4-amine]",99%
5,OCCn1ccc2ncnc(Nc3ccc(Oc4cccc5sncc45)c(Br)c3)c21 [Example 45],99%
6,"CS(=O)(=O)CC(=O)NCCn1ccc2ncnc(Nc3ccc(Oc4cccc5sncc45)c(Cl)c3)c21.CS(=O)(=O)O [Example 24, N-[2-(4-{[4-(1,2-benzoisothiazol-4-yloxy)-3-chlorophenyl]amino}-5H-pyrrolo[3,2-d]pyrimidin-5-yl)ethyl]-2-(methylsulfonyl)acetamide methanesulfonate]",100%

# Molecular target: T2, HER2 kinase (HER2 intracellular domain) (Homo sapiens, UniProt P04626)
# T2 construct: made in house; host or cells: SF-21 insect cells infected with recombinant baculovirus BAC-HER2
# Assay: Determination of HER2 kinase inhibitory activity
# Type: biochemical
# Set-up: concentration or dose not given beside the values
# Conditions: compound at 1.0 μL (so in the source), [γ-32P]ATP, poly-Glu:Tyr (4:1) substrate
# Description: Human HER2 gene was cloned by RT-PCR using total RNA prepared from MCF7 cells as a template. The primer used for RT-PCR was prepared in consideration of the information of nucleotide sequence (Genbank Accession No. M11730) of HER2 gene by adding a nucleotide sequence encoding DYKDDDD peptide and a restriction enzyme recognition sequence to a nucleotide sequence (corresponding to 2176-3918 of Genbank Accession No. M11730 as a base, 676-1255 amino acids of Genbank Accession No. NP_004439 as a protein) encoding the HER2 intracellular domain region such that the protein contains an N-terminal DYKDDDD peptide tag. The primer nucleotide sequence is shown below.
# as §1, with “hr,” for “hrs,”, “BAC-HER2” for “BAC-EGFR”, “HER2” for “EGFR”
# HER2 kinase reaction was performed using a 96 well plate. As a buffer for kinase reaction, a buffer having a composition of 50 mM Tris-HCl (pH 7.5), 5 mM MnCl2, 2 mM dithiothreitol, 0.01% Tween-20 was used. The compound of the present invention was dissolved in dimethyl sulfoxide (DMSO), and diluted with the kinase reaction buffer so that DMSO concentration would be 0.1% during kinase reaction. This compound solution (10 μL) was mixed with a kinase reaction buffer (20 μL) containing HER2 intracellular domain (0.625 μg/mL) obtained in Experimental Example 1B and polypeptide substrate poly-Glu:Tyr (4:1) (Sigma Ltd., 12.5 μg/mL), and the mixture was stood at room temperature for 5 min. Then, a kinase reaction buffer (20 μL) containing 125 μM ATP and 45 μCi/mL [γ-^32P]ATP was added, and the kinase reaction was initiated with 50 μL of the final reaction mixture. A kinase reaction was performed at room temperature for 10 min, and the kinase reaction was quenched by addition of 20% TCA solution (50 μL). The mixture after completion of the reaction was stood at room temperature for 30 min, and acid insoluble fractions in the mixture after completion of the reaction were collected in a 96 well GF/C filter plate (PerkinElmer) using a cell harvester (PerkinElmer). Thereafter, the filter containing the acid insoluble fractions was washed with 3% phosphoric acid solution. After washing, the filter plate was dried at 45° C. for 60 min, and 25 μL of MicroScinti 0 (PerkinElmer) was added. The radioactivity was measured using TopCount (PerkinElmer). HER2 kinase inhibitory rate (%) of the test compound was calculated by the following formula: […]
# T2 sequence (P04626 676-1255): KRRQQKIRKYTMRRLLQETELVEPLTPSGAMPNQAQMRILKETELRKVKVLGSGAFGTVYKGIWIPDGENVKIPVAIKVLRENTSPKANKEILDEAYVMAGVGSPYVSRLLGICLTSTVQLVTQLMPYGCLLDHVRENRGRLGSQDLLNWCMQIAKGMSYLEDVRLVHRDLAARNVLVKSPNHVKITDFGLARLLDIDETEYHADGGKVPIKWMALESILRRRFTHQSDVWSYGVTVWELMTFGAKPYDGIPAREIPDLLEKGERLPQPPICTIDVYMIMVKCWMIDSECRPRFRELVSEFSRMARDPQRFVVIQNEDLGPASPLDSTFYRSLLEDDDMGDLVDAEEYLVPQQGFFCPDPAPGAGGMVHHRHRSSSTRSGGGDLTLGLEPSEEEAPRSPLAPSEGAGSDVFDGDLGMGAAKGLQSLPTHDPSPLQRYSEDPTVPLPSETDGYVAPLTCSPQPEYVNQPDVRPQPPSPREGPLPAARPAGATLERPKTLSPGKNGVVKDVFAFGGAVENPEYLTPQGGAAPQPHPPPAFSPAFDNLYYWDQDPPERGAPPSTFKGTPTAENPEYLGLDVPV
row,SMILES,inhibitory rate (%) at 1.0 μL
1,"CC(C)(CO)C(=O)NCCn1ccc2ncnc(Nc3cc(F)c(Oc4cccc5sncc45)c(Cl)c3)c21 [Example 52, N-[2-(4-{[4-(1,2-benzoisothiazol-4-yloxy)-3-chloro-5-fluorophenyl]amino}-5H-pyrrolo[3,2-d]pyrimidin-5-yl)ethyl]-3-hydroxy-2,2-dimethylpropanamide]",99%
2,"CC(C)(N)C(=O)NCCn1ccc2ncnc(Nc3ccc(Oc4cccc5sncc45)c(Cl)c3)c21 [Example 60, N-[2-(4-{[4-(1,2-benzoisothiazol-4-yloxy)-3-chlorophenyl]amino}-5H-pyrrolo[3,2-d]pyrimidin-5-yl)ethyl]-2-methylalaninamide]",100%
3,"Clc1cc(N2CCn3ccc4ncnc2c43)ccc1Oc1cccc2sncc12 [Example 13, 4-[4-(1,2-benzoisothiazol-4-yloxy)-3-chlorophenyl]-5,6-dihydro-4H-pyrrolo[3,2,1-de]pteridine]",100%
4,"CC(=O)NCCn1ccc2ncnc(Nc3ccc(Oc4cccc5sncc45)c(Cl)c3)c21 [Example 4, N-[2-(4-{[4-(1,2-benzoisothiazol-4-yloxy)-3-chlorophenyl]amino}-5H-pyrrolo[3,2-d]pyrimidin-5-yl)ethyl]acetamide]",100%
5,"Cc1cc(Nc2ncnc3ccn(CCO)c23)ccc1Oc1cccc2sncc12 [Example 31, 2-(4-{[4-(1,2-benzoisothiazol-4-yloxy)-3-methylphenyl]amino}-5H-pyrrolo[3,2-d]pyrimidin-5-yl)ethanol]",100%
6,"OCCn1ccc2ncnc(Nc3ccc(Oc4ccc5cnsc5c4)c(Cl)c3)c21 [Example 20, 2-(4-{[4-(1,2-benzoisothiazol-6-yloxy)-3-chlorophenyl]amino}-5H-pyrrolo[3,2-d]pyrimidin-5-yl)ethanol]",98%
7,"Cl.Cn1c(Cl)cc2ncnc(Nc3ccc(Oc4cccc5sncc45)c(Cl)c3)c21 [Example 2, N-[4-(1,2-benzoisothiazol-4-yloxy)-3-chlorophenyl]-6-chloro-5-methyl-5H-pyrrolo[3,2-d]pyrimidin-4-amine hydrochloride]",100%
8,"COc1cc(Nc2ncnc3ccn(CCO)c23)ccc1Oc1cccc2sncc12 [Example 44, 2-(4-{[4-(1,2-benzoisothiazol-4-yloxy)-3-methoxyphenyl]amino}-5H-pyrrolo[3,2-d]pyrimidin-5-yl)ethanol]",98%
